This experiment concerns the target T1, fluorinase FlA1 (Streptomyces sp., UniProt W0W999).
T1 construct: recombinant, overexpressed in Escherichia coli, purified
Put plainly: global numerical fit of steady-state kinetics and mass photometry. It counts as biochemical. To be noted: 75 mM KF, 50 mM HEPES, pH 7.8, 37 °C; competitive with fluoride; dissociation of the unproductive E·SAM complex.

The record followed here is publication doi:10.1101/2025.07.28.666932v2, “Mechanism-Guided Engineering of Fluorinase Unlocks Efficient Nucleophilic Biofluorination” (biorxiv, 2026).

T1 sequence (W0W999 whole entry): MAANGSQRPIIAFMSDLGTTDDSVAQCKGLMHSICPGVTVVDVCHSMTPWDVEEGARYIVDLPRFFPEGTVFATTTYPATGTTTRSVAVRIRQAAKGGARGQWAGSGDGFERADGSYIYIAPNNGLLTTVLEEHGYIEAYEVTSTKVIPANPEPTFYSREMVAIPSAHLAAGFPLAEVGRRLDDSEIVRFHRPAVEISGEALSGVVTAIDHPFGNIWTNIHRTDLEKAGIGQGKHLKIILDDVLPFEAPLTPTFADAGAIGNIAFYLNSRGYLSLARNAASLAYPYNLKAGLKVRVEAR

On to `C[S+](CC[C@H](N)C(=O)O)C[C@H]1O[C@@H](n2cnc3c(N)ncnc32)[C@H](O)[C@@H]1O` (stereo partly shown) [SAM], for which the “Ki,SAM” value stood at 1.16 ± 0.08 µM.
